Tested on: 699152-130-R-J1-PDC complex spheroid viability
Experiment: Anticancer human tumor 699152-130-R-J1-PDC patient-derived pancreatic carcinoma cell line growth inhibition [POLQ]
Conditions: for IC50: curve of first compound; for viability, T/C: stronger effect = lower value
Summary of the method: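 PDC + HUVEC + MSC complex spheroids; POLQ inhibitors ± partner drugs; top conc. at/near clinical Cmax, else 10 microM (SN-38 1 microM), half-log dilutions; 37 degrees C, 5% CO2.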

[1] = second compound 0.0316 µM, first compound 0.0316 µM
[2] = second compound 0.0316 µM, first compound 0.1 µM
[3] = second compound 0.0316 µM, first compound 0.316 µM
[4] = second compound 0.0316 µM, first compound 1 µM
[5] = second compound 0.1 µM, first compound 0.0316 µM
[6] = second compound 0.1 µM, first compound 0.1 µM
[7] = second compound 0.1 µM, first compound 0.316 µM
[8] = second compound 0.1 µM, first compound 1 µM
[9] = second compound 0.316 µM, first compound 0.0316 µM
[10] = second compound 0.316 µM, first compound 0.1 µM
[11] = second compound 0.316 µM, first compound 0.316 µM
[12] = second compound 0.316 µM, first compound 1 µM
[13] = second compound 1 µM, first compound 0.0316 µM
[14] = second compound 1 µM, first compound 0.1 µM
[15] = second compound 1 µM, first compound 0.316 µM
[16] = second compound 1 µM, first compound 1 µM
[17] = second compound 3.16 µM, first compound 0.0316 µM
[18] = second compound 3.16 µM, first compound 0.1 µM
[19] = second compound 3.16 µM, first compound 0.316 µM
[20] = second compound 3.16 µM, first compound 1 µM
[21] = second compound 10 µM, first compound 0.0316 µM
[22] = second compound 10 µM, first compound 0.1 µM
[23] = second compound 10 µM, first compound 0.316 µM
[24] = second compound 10 µM, first compound 1 µM
[25] = second compound 0.0316 µM, first compound 3.16 µM
[26] = second compound 0.0316 µM, first compound 10 µM
[27] = second compound 0.1 µM, first compound 3.16 µM
[28] = second compound 0.1 µM, first compound 10 µM
[29] = second compound 0.316 µM, first compound 3.16 µM
[30] = second compound 0.316 µM, first compound 10 µM
[31] = second compound 1 µM, first compound 3.16 µM
[32] = second compound 1 µM, first compound 10 µM
[33] = second compound 3.16 µM, first compound 3.16 µM
[34] = second compound 3.16 µM, first compound 10 µM
[35] = second compound 10 µM, first compound 3.16 µM
[36] = second compound 10 µM, first compound 10 µM
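Further: spheroids exposed to agents for 7 days before viability reading.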
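Wherever viability, T/C is given: percent of DMSO vehicle control viability so 100% = vehicle and 0% = no viable signal.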

For `CCc1c2c(nc3ccc(O)cc13)-c1cc3c(c(=O)n1C2)COC(=O)[C@]3(O)CC` + Cc1cccc(N(C)C(=O)C2C(O)CCN2c2nc(C)cc(C(F)(F)F)c2C#N)c1, the IC50 (second compound 0.0316 µM) was 0.0392 µM, the IC50 (second compound 0.1 µM) was 0.0371 µM and the IC50 (second compound 0.316 µM) was 0.0488 µM. It also gave an IC50 (second compound 1 µM) of 0.0465 µM, an IC50 (second compound 3.16 µM) of 0.0627 µM and an IC50 (second compound 10 µM) of 0.0498 µM. The viability, T/C (second compound 0.0316 µM, first compound 0.00316 µM) was 64.4%, the viability, T/C (second compound 0.0316 µM, first compound 0.01 µM) was 54.2% and the viability, T/C [1] was 48.2%. It also gave a viability, T/C [2] of 46.4%, a viability, T/C [3] of 30.4% and a viability, T/C [4] of 10.9%. For the same compound, the viability, T/C (second compound 0.1 µM, first compound 0.00316 µM) was 78.5%, the viability, T/C (second compound 0.1 µM, first compound 0.01 µM) was 57.1% and the viability, T/C [5] was 49.8%. The viability, T/C [6] was 44.9%, the viability, T/C [7] was 26.1% and the viability, T/C [8] was 8.04%. For the same compound, the viability, T/C (second compound 0.316 µM, first compound 0.00316 µM) was 79.2%, the viability, T/C (second compound 0.316 µM, first compound 0.01 µM) was 55.2% and the viability, T/C [9] was 50.5%. It also gave a viability, T/C [10] of 51.6%, a viability, T/C [11] of 29.1% and a viability, T/C [12] of 8.39%. It also gave a viability, T/C (second compound 1 µM, first compound 0.00316 µM) of 77.9%, a viability, T/C (second compound 1 µM, first compound 0.01 µM) of 61.1% and a viability, T/C [13] of 52.3%. For the same compound, the viability, T/C [14] was 47.4%, the viability, T/C [15] was 26.1% and the viability, T/C [16] was 10.2%. For the same compound, the viability, T/C (second compound 3.16 µM, first compound 0.00316 µM) was 87%, the viability, T/C (second compound 3.16 µM, first compound 0.01 µM) was 68.8% and the viability, T/C [17] was 56.3%. For the same compound, the viability, T/C [18] was 48.6%, the viability, T/C [19] was 29.7% and the viability, T/C [20] was 12.6%. It also gave a viability, T/C (second compound 10 µM, first compound 0.00316 µM) of 78.5%, a viability, T/C (second compound 10 µM, first compound 0.01 µM) of 58% and a viability, T/C [21] of 51.4%. The viability, T/C [22] was 47.9%, the viability, T/C [23] was 33.2% and the viability, T/C [24] was 9.43%.
`CC1COCCN1c1cc(-c2ccnn2C)c2ccnc(-c3ccn[nH]3)c2n1` (stereo not drawn) + Cc1cccc(N(C)C(=O)C2C(O)CCN2c2nc(C)cc(C(F)(F)F)c2C#N)c1 showed an IC50 (second compound 0.0316 µM) of 2.33 µM, an IC50 (second compound 0.1 µM) of over 10 µM and an IC50 (second compound 0.316 µM) of 3.97 µM. It also gave an IC50 (second compound 1 µM) of 5.14 µM, an IC50 (second compound 3.16 µM) of over 10 µM and an IC50 (second compound 10 µM) of over 10 µM. It also gave a viability, T/C [1] of 98.3%, a viability, T/C [2] of 99.1% and a viability, T/C [3] of 74.4%. The viability, T/C [4] was 58%, the viability, T/C [25] was 47.8% and the viability, T/C [26] was 45.4%. For the same compound, the viability, T/C [5] was 93.9%, the viability, T/C [6] was 90.3% and the viability, T/C [7] was 75.2%. The viability, T/C [8] was 59.4%, the viability, T/C [27] was 62.2% and the viability, T/C [28] was 56.1%. It also gave a viability, T/C [9] of 92.2%, a viability, T/C [10] of 86.8% and a viability, T/C [11] of 75.5%. The viability, T/C [12] was 58.6%, the viability, T/C [29] was 46.3% and the viability, T/C [30] was 51.8%. For the same compound, the viability, T/C [13] was 107%, the viability, T/C [14] was 89% and the viability, T/C [15] was 70.9%. For the same compound, the viability, T/C [16] was 59%, the viability, T/C [31] was 50.2% and the viability, T/C [32] was 48.8%. It also gave a viability, T/C [17] of 109%, a viability, T/C [18] of 108% and a viability, T/C [19] of 69.4%. The viability, T/C [20] was 55.2%, the viability, T/C [33] was 51.1% and the viability, T/C [34] was 51.3%. For the same compound, the viability, T/C [21] was 94.7%, the viability, T/C [22] was 86.5% and the viability, T/C [23] was 75.8%. For the same compound, the viability, T/C [24] was 65.4%, the viability, T/C [35] was 52.6% and the viability, T/C [36] was 53.8%.
With `COc1ccc([C@@H](O)c2cc(-c3ncnc4cc(N5CCOCC5)ccc34)c(F)cc2Cl)nn1` + Nc1ccc(C#CCN(C(=O)Cc2ncc(C(F)(F)F)cc2C(F)(F)F)c2ccc(F)cc2)nn1 the IC50 (second compound 0.0316 µM) was 3.01 µM, the IC50 (second compound 0.1 µM) was 2.89 µM and the IC50 (second compound 0.316 µM) was 3.05 µM. For the same compound, the IC50 (second compound 1 µM) was 3.39 µM, the IC50 (second compound 3.16 µM) was 3.54 µM and the IC50 (second compound 10 µM) was 3.89 µM. The viability, T/C [1] was 89.7%, the viability, T/C [2] was 95.3% and the viability, T/C [3] was 82.5%. It also gave a viability, T/C [4] of 78.8%, a viability, T/C [25] of 48.1% and a viability, T/C [26] of 19.2%. For the same compound, the viability, T/C [5] was 95.2%, the viability, T/C [6] was 93.3% and the viability, T/C [7] was 91.1%. It also gave a viability, T/C [8] of 76.4%, a viability, T/C [27] of 47.9% and a viability, T/C [28] of 25.5%. For the same compound, the viability, T/C [9] was 114%, the viability, T/C [10] was 93.2% and the viability, T/C [11] was 92.5%. The viability, T/C [12] was 70.9%, the viability, T/C [29] was 50.2% and the viability, T/C [30] was 19.3%. It also gave a viability, T/C [13] of 99.5%, a viability, T/C [14] of 100% and a viability, T/C [15] of 96.7%. For the same compound, the viability, T/C [16] was 85.9%, the viability, T/C [31] was 51.8% and the viability, T/C [32] was 22.5%. It also gave a viability, T/C [17] of 101%, a viability, T/C [18] of 92.6% and a viability, T/C [19] of 90.5%. The viability, T/C [20] was 83.4%, the viability, T/C [33] was 52.2% and the viability, T/C [34] was 21.8%. For the same compound, the viability, T/C [21] was 116%, the viability, T/C [22] was 105% and the viability, T/C [23] was 104%. For the same compound, the viability, T/C [24] was 84%, the viability, T/C [35] was 54.9% and the viability, T/C [36] was 26%.
`O=C(c1cc(Cc2n[nH]c(=O)c3ccccc23)ccc1F)N1CCN(C(=O)C2CC2)CC1` + Cc1cccc(N(C)C(=O)C2C(O)CCN2c2nc(C)cc(C(F)(F)F)c2C#N)c1 showed an IC50 (second compound 0.0316 µM) of over 10 µM, an IC50 (second compound 0.1 µM) of over 10 µM and an IC50 (second compound 0.316 µM) of over 10 µM. The IC50 (second compound 1 µM) was over 10 µM, the IC50 (second compound 3.16 µM) was over 10 µM and the IC50 (second compound 10 µM) was over 10 µM. The viability, T/C [1] was 91.2%, the viability, T/C [2] was 96.4% and the viability, T/C [3] was 82.7%. It also gave a viability, T/C [4] of 96.1%, a viability, T/C [25] of 104% and a viability, T/C [26] of 69.6%. It also gave a viability, T/C [5] of 94%, a viability, T/C [6] of 104% and a viability, T/C [7] of 93.1%. It also gave a viability, T/C [8] of 94.8%, a viability, T/C [27] of 99.5% and a viability, T/C [28] of 75.5%. It also gave a viability, T/C [9] of 88.3%, a viability, T/C [10] of 97.1% and a viability, T/C [11] of 97.3%. For the same compound, the viability, T/C [12] was 111%, the viability, T/C [29] was 107% and the viability, T/C [30] was 81%. The viability, T/C [13] was 103%, the viability, T/C [14] was 94.8% and the viability, T/C [15] was 92.4%. For the same compound, the viability, T/C [16] was 102%, the viability, T/C [31] was 87.3% and the viability, T/C [32] was 75.7%. It also gave a viability, T/C [17] of 101%, a viability, T/C [18] of 104% and a viability, T/C [19] of 91.1%. For the same compound, the viability, T/C [20] was 97.1%, the viability, T/C [33] was 92.6% and the viability, T/C [34] was 72%. The viability, T/C [21] was 94.6%, the viability, T/C [22] was 90.6% and the viability, T/C [23] was 105%. It also gave a viability, T/C [24] of 84.9%, a viability, T/C [35] of 99.1% and a viability, T/C [36] of 78.9%.

Source: PubChem BioAssay AID1963835 (Molecular Pharmacology Branch, DTP, NCI, 2024)
